Data as given in PubChem BioAssay (NCI).
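All cell lines were grown in 96-well plates and treated with compound for 48 hours. TGI denotes the concentration required for complete inhibition of growth.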

Key:
Assay in all cases: growth of human tumour cells (NCI), 48 h
[1] = tested on: PC-3 prostate
[2] = tested on: DU-145 prostate
[3] = tested on: A549 NSCLC
[4] = tested on: HCC-2998 colon
[5] = tested on: NCI-H522 lung
[6] = tested on: SW-620 colon
[7] = tested on: CCRF-CEM leukemia
[8] = tested on: RPMI-8226 leukemia
[9] = tested on: SF-268 CNS
[10] = tested on: UACC-257 melanoma
[11] = tested on: T-47D breast
[12] = tested on: HT29 colon
[13] = tested on: SN12C renal
[14] = tested on: SR leukemia
[15] = tested on: HOP-62 NSCLC
[16] = tested on: MOLT-4 leukemia
[17] = tested on: K-562 leukemia
[18] = tested on: HL-60(TB) leukemia
[19] = tested on: SK-MEL-2 melanoma
[20] = tested on: SNB-19 CNS
[21] = tested on: MDA-MB-231 breast
[22] = tested on: UACC-62 melanoma
[23] = tested on: OVCAR-5 ovarian
[24] = tested on: NCI-H460 lung
[25] = tested on: A498 renal
[26] = tested on: HCT-116 colon
[27] = tested on: NCI-H226 lung
[28] = tested on: MDA-N
[29] = tested on: OVCAR-4 ovarian
[30] = tested on: LOX IMVI melanoma
[31] = tested on: ACHN renal
[32] = tested on: M14 melanoma
[33] = tested on: SK-MEL-28 melanoma
[34] = tested on: OVCAR-3 ovarian
[35] = tested on: TK-10 renal
[36] = tested on: MALME-3M melanoma
[37] = tested on: U251 CNS
[38] = tested on: MDA-MB-435
[39] = tested on: SNB-75 CNS
[40] = tested on: UO-31 renal
[41] = tested on: IGROV1 ovarian
[42] = tested on: BT-549 breast
[43] = tested on: OVCAR-8 ovarian
[44] = tested on: NCI-H23 lung
[45] = tested on: SK-MEL-5 melanoma
[46] = tested on: CAKI-1 renal
[47] = tested on: 786-0 renal
[48] = tested on: MCF7 breast
[49] = tested on: HCT-15 colon
[50] = tested on: EKVX NSCLC
[51] = tested on: SF-295 CNS
[52] = tested on: SF-539 CNS
[53] = tested on: SK-OV-3 ovarian
[54] = tested on: NCI/ADR-RES ovarian
[55] = tested on: KM12 colon
[56] = tested on: RXF 393 renal
[57] = tested on: HS 578T breast
[58] = tested on: HOP-92 NSCLC
[59] = tested on: COLO 205 colon

CCc1ccccc1N=NC(=O)NNc1ccccc1CC
TGI [1]: 37.5 µM | TGI [2]: 33.6 µM | TGI [3]: 31.9 µM | TGI [4]: 29.9 µM | TGI [5]: 41.3 µM | TGI [6]: 37.5 µM | TGI [7]: 65.6 µM | TGI [8]: 77.3 µM | TGI [9]: 35.4 µM | TGI [10]: 36.1 µM | TGI [11]: 32.2 µM | TGI [12]: 40.8 µM | TGI [13]: 35.7 µM | TGI [14]: 57.1 µM | TGI [15]: 29.4 µM | TGI [16]: 50.1 µM | TGI [17]: 68.5 µM | TGI [18]: 56.9 µM | TGI [19]: 31.7 µM | TGI [20]: 95 µM | TGI [21]: 50.1 µM | TGI [22]: 23 µM | TGI [23]: 29.4 µM | TGI [24]: 34.5 µM | TGI [25]: 36.5 µM | TGI [26]: 29 µM | TGI [27]: 34.4 µM | TGI [28]: 33.2 µM | TGI [29]: 69.8 µM | TGI [30]: 33.7 µM | TGI [31]: 54.6 µM | TGI [32]: 34.7 µM | TGI [33]: 32.2 µM | TGI [34]: 33.2 µM | TGI [35]: 50.1 µM | TGI [36]: 32.7 µM | TGI [37]: 29.6 µM | TGI [38]: 49 µM | TGI [39]: 45.7 µM | TGI [40]: 39.8 µM | TGI [41]: 26 µM | TGI [42]: 34.3 µM | TGI [43]: 32.8 µM | TGI [44]: 39.8 µM | TGI [45]: 28.6 µM | TGI [46]: 95.2 µM | TGI [47]: 31.6 µM | TGI [48]: 36.3 µM | TGI [49]: 38.1 µM

COc1c(CC=C(C)C)c(O)c(C(CC(C)C)c2c(O)c3c(c(C(C)=O)c2O)OC(C(C)(C)O)C3)c(O)c1C(C)=O (stereo not drawn)
TGI [1]: 10 µM | TGI [2]: > 12.5 µM | TGI [3]: > 12.5 µM | TGI [4]: > 12.5 µM | TGI [5]: > 12.5 µM | TGI [6]: > 12.5 µM | TGI [50]: > 12.5 µM | TGI [7]: 9.74 µM | TGI [8]: 3.19 µM | TGI [9]: > 12.5 µM | TGI [10]: 12.4 µM | TGI [11]: 9.21 µM | TGI [12]: > 12.5 µM | TGI [13]: > 12.5 µM | TGI [14]: 6.93 µM | TGI [51]: > 12.5 µM | TGI [15]: > 12.5 µM | TGI [16]: 5.9 µM | TGI [17]: 9.11 µM | TGI [18]: 7.55 µM | TGI [19]: > 12.5 µM | TGI [20]: > 12.5 µM | TGI [22]: > 12.5 µM | TGI [23]: > 12.5 µM | TGI [25]: 12.3 µM | TGI [26]: > 12.5 µM | TGI [52]: > 12.5 µM | TGI [53]: > 12.5 µM | TGI [28]: > 12.5 µM | TGI [29]: > 12.5 µM | TGI [30]: > 12.5 µM | TGI [31]: > 12.5 µM | TGI [32]: > 12.5 µM | TGI [33]: > 12.5 µM | TGI [34]: > 12.5 µM | TGI [54]: 11.1 µM | TGI [55]: > 12.5 µM | TGI [36]: > 12.5 µM | TGI [56]: 10.9 µM | TGI [38]: > 12.5 µM | TGI [39]: > 12.5 µM | TGI [40]: > 12.5 µM | TGI [41]: > 12.5 µM | TGI [42]: 9.49 µM | TGI [43]: > 12.5 µM | TGI [44]: 8.9 µM | TGI [45]: 4.44 µM | TGI [46]: > 12.5 µM | TGI [57]: > 12.5 µM | TGI [47]: > 12.5 µM | TGI [58]: 6.43 µM | TGI [59]: 8.38 µM | TGI [48]: 9.87 µM | TGI [49]: > 12.5 µM
